Measured values reported in patent US20260118350A1, “Fluorescent Probes for Peroxidase-Mediated Fluorescent Signal Amplification” (Seoul National University R&DB Foundation, priority 2024, published 2026).

Legend:
[1] = test system: HeLa cells transiently expressing TMEM192-V5-APEX2; assay: Lysosome diameter and lysosome-mitochondria contact under lysosomal stressors (JFT1 labeling by TMEM192-V5-APEX2); assay type: cell-based, Human; settings: for fold increase of lysosomal diameter vs DMSO treatment / mean lysosomal diameter: BFA 100 nM or U18666A 2 μg/ml, 18 h; for mitochondria-lysosome co-localization: HeLa cells co-expressing mito-mEosEM and TMEM192-V5-APEX2; for mean lysosomal diameter: mean (±SEM)
Method: Fluorescently labeled lysosome (JFT1-labeled or Lysotracker Red, RFP channel) and mitochondria (mito-mEosEM, GFP channel) area were analyzed using Fiji/ImageJ (National Institutes of Health, USA). Area corresponding to the colocalization of lysosome-mitochondria were delimited manually by thresholding keeping the same threshold for control. The colocalized area was measured for 5 cells in each group. To measure lysosome diameter, we utilized Fiji/ImageJ. Initially, the images were converted to 8-bit and the pixel measurements were calibrated using a scale bar. Circular lysosomes were then selected and a line representing the diameter of each selected lysosome was drawn, referencing the limiting membrane according to the JFT1 fluorescence signal. Subsequently, we utilized the “analyze and measure” feature of ImageJ, which generates a table with various parameters such as area and length. To convert the length from pixels to micrometers, we applied the following formula: (pixel diameter/pixels on the scale bar)×10 μm. Once the values were converted, they were plotted and statistical analysis for unpaired t-test was performed using Prism GraphPad software ([…] et al., 2021). HeLa cells transiently expressing TMEM192-V5-APEX2 were plated on coverslips (thickness no. 1.5, radius 18 mm). The cells were then treated with DMSO or U18666A (2 ug/ml), Bafilomycin A1 (100 nM) in DMEM for 18 h at 37° C. and washed three times with cold DPBS. The cells were fixed in 4% paraformaldehyde for 15 min at room temperature. Next, JFT1 labeling was done using 100 μM of the probe and 1 mM H2O2 for 5 min. Reaction was quenched and cells were permeabilized for immunofluorescence imaging with cold methanol for 5 min at -20° C., followed by washing with DPBS and blocking for 1 h with 2% bovine serum albumin in DPBS at room temperature.

TOM20-V5-APEX2 = assay: Live-cell APEX labeling using JF probes; assay type: cell-based, Human; settings: 5 min pre-incubation, 1 mM H2O2 1 min, TOM20-V5-APEX2-expressing cells
Method: To visualize various APEX2-POIs in live cells, JF or JFA (50-100 μM) and 1 mM H2O2 were treated to APEX2-POI expressing cells during the live stage. After treatment, cells were washed thrice with DPBS and then fixed with 4% PFA in 1×DPBS for 15 minutes at room temperature. For immuno-fluorescence imaging, cells were permeabilized with −20° C. methanol for 5 minutes, followed by the standard immunofluorescence staining protocol. To detect JF or JFA fluorescence and immunofluorescence, we used the GFP channel (excitation at 488 nm), RFP channel (excitation at 561 nm), and Cy5 channel (excitation at 647 nm) of a confocal light microscope (FV3000, Olympus, Japan). HeLa cells were used for imaging experiments.
Further, the APEX reaction in live cells utilizing the JF probes in cells expressing TOM20-V5-APEX2 at the cytosolic face of the outer mitochondrial membrane (OMM) were examined. Each JF probe (JF, JFA, JFT1, JFT2, and JFT3) was pre-incubated with the cells for 5 min, followed by the addition of 1 mM H2O2 and incubation for 1 min to activate the peroxidase.

endogenous peroxidases = assay: Reaction with endogenous peroxidases in live cells; assay type: cell-based; settings: high concentrations (≥100 μM) for 1 h in live cells
Method: However, our focus was on utilizing JFT for CLEM imaging under fixed conditions. For live-cell APEX2 labeling experiments, JF or JFA (50-100 μM) was incubated with 1 mM H2O2 for 1 min. Both JF and JFA are cell-permeable and can react with APEX2 under live-cell conditions. […] We observed that a 5-min incubation of high concentrations of JFT1 ([…]) and H2O2 (0.5-1 mM) can generate selective FLEX labeling where APEX2-POIs are expressed (see Methods for details). For live-cell experiments, it would be highly advantageous to further develop JF probes with negligible activity against endogenous peroxidase in live-cell conditions while still maintaining reactivity for the APEX or HRP reaction. Since JFT was synthesized from JFA, this strategy opens up the possibility of generating further variations in JFT or other JF-based probes using various azido-click moieties. This approach could lead to the development of improved probes with enhanced performance for live-cell imaging applications.

HRP = biological target: T1, HRP (Armoracia rusticana, UniProt P00433); assay: Polymerization of JF catalyzed by HRP; assay type: biochemical, horseradish
T1 sequence (P00433 31-338 limits assumed): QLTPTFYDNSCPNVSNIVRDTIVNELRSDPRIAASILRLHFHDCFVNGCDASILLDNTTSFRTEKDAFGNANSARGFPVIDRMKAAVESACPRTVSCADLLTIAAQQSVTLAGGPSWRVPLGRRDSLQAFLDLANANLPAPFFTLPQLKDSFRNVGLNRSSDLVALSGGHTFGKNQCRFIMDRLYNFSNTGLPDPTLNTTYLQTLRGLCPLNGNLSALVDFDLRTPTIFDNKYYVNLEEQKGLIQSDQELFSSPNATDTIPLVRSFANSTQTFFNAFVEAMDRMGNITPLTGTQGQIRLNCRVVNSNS
Method: JF (400 μM) was prepared by dissolving the powder in DMSO. To induce the polymerization of JF, 10 μM of HRP was added along with 2 mM H2O2. JF-precipitate starts forming after 30 minutes of incubation with HRP and H2O2. This reaction was carried out at room temperature for 24 h to acquire the polymerized JF. The mixture was centrifuged at 15,000 g for 10 min to separate the polymerized JF product from non-reacted JF.

Row | SMILES | fold increase of lysosomal diameter vs DMSO treatment [1] | mitochondria-lysosome co-localization [1] | mean lysosomal diameter [1] | fluorescence staining in live cells (TOM20-V5-APEX2) | reactivity with endogenous peroxidases (endogenous peroxidases) | precipitate formation upon HRP-mediated reaction (HRP; HRP and H2O2) | time at which JF-precipitate starts forming (HRP; JF 400 μM, 10 μM HRP, 2 mM H2O2, room temperature)
1 | CCN(CC)CCO[C@H]1CC[C@@]2(C)C(=CC[C@@H]3[C@@H]2CC[C@]2(C)C(=O)CC[C@@H]32)C1 [U18666A] | 2.2 fold | enhanced co-localization | 0.87 μm | – | – | – | –
2 | CC[n+]1c(/C=C/c2ccc(O)cc2)sc2ccccc21 [JF, (E)-3-ethyl-2-(4-hydroxystyryl)benzo[d]thiazol-3-ium, reference compound] | – | – | – | red fluorescence stains | can also react with endogenous peroxidases | macroscopic precipitate deposition | 30 min
3 | C#CC[n+]1c(/C=C/c2ccc(O)cc2)sc2ccccc21 [JFA, (E)-2-(4-hydroxystyryl)-3-(prop-2-yn-1-yl)benzo[d]thiazol-3-ium] | – | – | – | red fluorescence stains | can also react with endogenous peroxidases | – | –
4 | CO/C1=C\C(C)=C\[C@@H](C)[C@@H](O)[C@@H](C)C/C(C)=C/C=C/[C@H](OC)[C@@H]([C@@H](C)[C@@H](O)[C@H](C)[C@@]2(O)C[C@@H](O)[C@H](C)[C@@H](C(C)C)O2)OC1=O [Bafilomycin A1] | 2.7 fold | more merged patterns | 1.20 μm | – | – | – | –
